Measurements taken from BigSolDB 2.1.

O=C(O)[C@@H](O)CCc1ccccc1
solubility (mole fraction)
Conditions	in ethyl acetate	in toluene	in water
278.2 K	0.107	–	–
283.2 K	0.117	–	0.00071
288.2 K	0.128	0.0013	0.00094
293.2 K	0.14	0.00169	0.00107
298.2 K	0.15	0.00235	0.00137
303.2 K	0.16	0.00298	0.00172
308.2 K	0.174	0.00407	0.00229
313.2 K	0.182	0.00555	0.00311
318.2 K	–	0.00729	0.00406
323.2 K	–	0.00996	0.00701
328.2 K	–	0.0127	0.0142
333.2 K	–	0.0173	0.044
338.2 K	–	0.0238	–
343.2 K	–	0.0341	–
